Experimental data reported in PubChem BioAssay AID2060506 (Molecular Pharmacology Branch, DTP, NCI, 2025).
pIC50: −log10 of the molar value.

Test system: 598228-144-R-J1-PDC complex spheroid viability
Assay: Anticancer human tumor 598228-144-R-J1-PDC patient-derived serous endometrial adenocarcinoma cell line growth inhibition [GQUAD]
Settings: for pIC50: curve of first compound; for viability, T/C: stronger effect = lower value
In short: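 Tumor cells were grown as complex spheroids with HUVEC endothelial cells and mesenchymal stem cells as stroma. G-quadruplex stabilizers were combined with targeted agents over half-log dilutions from near the clinical Cmax, or from 10 microM.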

[1] = second compound 0.0316 µM, first compound 0.0316 µM
[2] = second compound 0.0316 µM, first compound 0.1 µM
[3] = second compound 0.0316 µM, first compound 0.316 µM
[4] = second compound 0.0316 µM, first compound 1 µM
[5] = second compound 0.0316 µM, first compound 3.16 µM
[6] = second compound 0.0316 µM, first compound 10 µM
[7] = second compound 0.1 µM, first compound 0.0316 µM
[8] = second compound 0.1 µM, first compound 0.1 µM
[9] = second compound 0.1 µM, first compound 0.316 µM
[10] = second compound 0.1 µM, first compound 1 µM
[11] = second compound 0.1 µM, first compound 3.16 µM
[12] = second compound 0.1 µM, first compound 10 µM
[13] = second compound 0.316 µM, first compound 0.0316 µM
[14] = second compound 0.316 µM, first compound 0.1 µM
[15] = second compound 0.316 µM, first compound 0.316 µM
[16] = second compound 0.316 µM, first compound 1 µM
[17] = second compound 0.316 µM, first compound 3.16 µM
[18] = second compound 0.316 µM, first compound 10 µM
[19] = second compound 1 µM, first compound 0.0316 µM
[20] = second compound 1 µM, first compound 0.1 µM
[21] = second compound 1 µM, first compound 0.316 µM
[22] = second compound 1 µM, first compound 1 µM
[23] = second compound 1 µM, first compound 3.16 µM
[24] = second compound 1 µM, first compound 10 µM
[25] = second compound 3.16 µM, first compound 0.0316 µM
[26] = second compound 3.16 µM, first compound 0.1 µM
[27] = second compound 3.16 µM, first compound 0.316 µM
[28] = second compound 3.16 µM, first compound 1 µM
[29] = second compound 3.16 µM, first compound 3.16 µM
[30] = second compound 3.16 µM, first compound 10 µM
[31] = second compound 10 µM, first compound 0.0316 µM
[32] = second compound 10 µM, first compound 0.1 µM
[33] = second compound 10 µM, first compound 0.316 µM
[34] = second compound 10 µM, first compound 1 µM
[35] = second compound 10 µM, first compound 3.16 µM
[36] = second compound 10 µM, first compound 10 µM
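Note: spheroids exposed to the agents for one week before reading.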
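Throughout, for viability, T/C: percent of vehicle DMSO control viability so 100% = untreated growth.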

Question: What does the source list for `COc1cc(C2c3cc4c(cc3C(OC3OC5COC(C)OC5C(O)C3O)C3COC(=O)C23)OCO4)cc(OC)c1O` (centres undefined) + Cc1[nH]c2ccc(F)cc2c1-c1nc2c3cccnc3c3ncccc3c2[nH]1?
Answer: pIC50 (second compound 0.0316 µM): < 5.00; pIC50 (second compound 0.1 µM): < 5.00; pIC50 (second compound 0.316 µM): < 5.00; pIC50 (second compound 1 µM): 5.38; pIC50 (second compound 3.16 µM): > 7.50; pIC50 (second compound 10 µM): 5.35; viability, T/C [1]: 91.8%; viability, T/C [2]: 85.6%; viability, T/C [3]: 87%; viability, T/C [4]: 71%; viability, T/C [5]: 60.4%; viability, T/C [6]: 51.3%; viability, T/C [7]: 92.9%; viability, T/C [8]: 77.5%; viability, T/C [9]: 66.2%; viability, T/C [10]: 71.8%; viability, T/C [11]: 68.7%; viability, T/C [12]: 48.6%; viability, T/C [13]: 119%; viability, T/C [14]: 72%; viability, T/C [15]: 76.7%; viability, T/C [16]: 66%; viability, T/C [17]: 66%; viability, T/C [18]: 47.6%; viability, T/C [19]: 62.6%; viability, T/C [20]: 59.5%; viability, T/C [21]: 58.5%; viability, T/C [22]: 44.7%; viability, T/C [23]: 62%; viability, T/C [24]: 43.1%; viability, T/C [25]: 43.2%; viability, T/C [26]: 42%; viability, T/C [27]: 39.3%; viability, T/C [28]: 46.2%; viability, T/C [29]: 38.2%; viability, T/C [30]: 43.5%; viability, T/C [31]: 54.6%; viability, T/C [32]: 62.9%; viability, T/C [33]: 55.7%; viability, T/C [34]: 47.9%; viability, T/C [35]: 61.9%; viability, T/C [36]: 34.9%

Question: `COc1cccc2c1C(=O)c1c(O)c3c(c(O)c1C2=O)CC(O)(C(=O)CO)CC3OC1CC(N)C(O)C(C)O1` (centres undefined) + Cc1[nH]c2ccc(F)cc2c1-c1nc2c3cccnc3c3ncccc3c2[nH]1 was tested. Which pIC50 (second compound 0.0316 µM) did it give?
Answer: 6.18

Question: And the pIC50 (second compound 0.1 µM)?
Answer: 6.05

Question: And the pIC50 (second compound 0.316 µM)?
Answer: 5.98

Question: And the pIC50 (second compound 1 µM)?
Answer: 6.38

Question: And the pIC50 (second compound 3.16 µM)?
Answer: > 7.50

Question: What about the pIC50 (second compound 10 µM) of the same molecule?
Answer: 6.19

Question: And the viability, T/C [1]?
Answer: 97.1%

Question: What about the viability, T/C [2] of the same molecule?
Answer: 81.6%

Question: What about the viability, T/C [3] of the same molecule?
Answer: 69.8%

Question: What about the viability, T/C [4] of the same molecule?
Answer: 42.8%

Question: What about the viability, T/C [5] of the same molecule?
Answer: 5.14%

Question: And the viability, T/C [6]?
Answer: 0.27%

Question: And the viability, T/C [7]?
Answer: 88.7%

Question: And the viability, T/C [8]?
Answer: 77.2%

Question: And the viability, T/C [9]?
Answer: 78.6%

Question: And the viability, T/C [10]?
Answer: 47%

Question: What about the viability, T/C [11] of the same molecule?
Answer: 2.77%

Question: What about the viability, T/C [12] of the same molecule?
Answer: 0.42%

Question: And the viability, T/C [13]?
Answer: 84.7%

Question: And the viability, T/C [14]?
Answer: 72.8%

Question: What about the viability, T/C [15] of the same molecule?
Answer: 74.7%

Question: And the viability, T/C [16]?
Answer: 51.9%

Question: And the viability, T/C [17]?
Answer: 3.76%

Question: And the viability, T/C [18]?
Answer: 1.38%

Question: And the viability, T/C [19]?
Answer: 67.3%

Question: What about the viability, T/C [20] of the same molecule?
Answer: 48.8%

Question: What about the viability, T/C [21] of the same molecule?
Answer: 54.3%

Question: And the viability, T/C [22]?
Answer: 34.7%

Question: What about the viability, T/C [23] of the same molecule?
Answer: 4.19%

Question: What about the viability, T/C [24] of the same molecule?
Answer: 1.39%

Question: And the viability, T/C [25]?
Answer: 38.9%

Question: And the viability, T/C [26]?
Answer: 36.8%

Question: What about the viability, T/C [27] of the same molecule?
Answer: 31.8%

Question: What about the viability, T/C [28] of the same molecule?
Answer: 25.4%

Question: And the viability, T/C [29]?
Answer: 1.9%

Question: And the viability, T/C [30]?
Answer: 1.11%

Question: And the viability, T/C [31]?
Answer: 57.1%

Question: What about the viability, T/C [32] of the same molecule?
Answer: 72.3%

Question: And the viability, T/C [33]?
Answer: 49%

Question: What about the viability, T/C [34] of the same molecule?
Answer: 46.1%

Question: What about the viability, T/C [35] of the same molecule?
Answer: 5.49%

Question: And the viability, T/C [36]?
Answer: 0.68%
